Laboratory results published in paper PMC7722354, “7-Substituted 2-Nitro-5,6-dihydroimidazo[2,1-b][1,3]oxazines: Novel Antitubercular Agents Lead to a New Preclinical Candidate for Visceral Leishmaniasis” (Journal of Medicinal Chemistry, 2017).
Values after ≈ are worked out from the molar mass of the structure shown.

Key:
[1] = tested on: Leishmania donovani; assay: L. don amastigote mouse macrophage-based luciferase assay (CDRI); type: cell-based; details: in mouse macrophages, single test (CDRI)
[2] = tested on: Leishmania infantum; assay: L. inf growth inhibition in mouse macrophages (LMPH); type: cell-based; details: Macrophage, mean of at least two determinations
[3] = tested on: Trypanosoma cruzi; assay: T. cruzi growth inhibition on MRC-5 cells (LMPH); type: cell-based; details: MRC5
[4] = tested on: human lung fibroblasts (MRC-5 cells); assay: cytotoxicity toward MRC-5 cells (LMPH); type: cell-based; details: MRC5
[5] = tested on: M. tb, strain H37Rv; assay: MABA minimum inhibitory concentration assay (aerobic); type: cell-based, Mycobacterium tuberculosis
[6] = tested on: M. tb, strain H37Rv; assay: LORA minimum inhibitory concentration assay (hypoxic); type: cell-based; details: Mycobacterium tuberculosis
[7] = Mycobacterium tuberculosis, H37RV, aerobic, read-out: MIC MABA
[8] = Mycobacterium tuberculosis, H37RV, read-out: MIC MABA, aerobic

Compound | IC50 [1] [nM] | IC50 [2] [nM] | IC50 [3] [nM] | IC50 [4] [µM] | MIC [5, 7] [µM] | MIC [6] [µM] | MIC [5, 8] [µM] | MIC ([5]; aerobic, read-out: MIC MABA) [µM]
CC1(COCc2ccc(OC(F)(F)F)cc2)CCn2cc([N+](=O)[O-])nc2O1 (centres unmarked) [compound 21] | 310 | 300 | 750 | > 64 | 0.55 (≈ 0.213 µg/mL) | 3.3 (≈ 1.28 µg/mL) |  | 
O=[N+]([O-])c1cn2c(n1)OC(COCc1ccc(OCc3ccccc3)cc1)CC2 (centres unmarked) [compound 22] | 50 |  |  |  |  | 3 (≈ 1.19 µg/mL) |  | 
CC1(COCc2ccc(OCc3ccccc3)cc2)CCn2cc([N+](=O)[O-])nc2O1 (centres unmarked) [compound 23] | 280 |  |  |  | 0.2 (≈ 0.0819 µg/mL) | 1.4 (≈ 0.573 µg/mL) |  | 
O=[N+]([O-])c1cn2c(n1)OC(COCc1ccc(-c3ccc(F)cc3)cc1)CC2 (centres unmarked) [compound 25, 7-{[(4′-Fluoro[1,1′-biphenyl]-4-yl)methoxy]methyl}-2-nitro-6,7-dihydro-5H-imidazo[2,1-b][1,3]oxazine] | 20 | 170 | 530 | > 64 | 0.08 (≈ 0.0307 µg/mL) | 1.3 (≈ 0.498 µg/mL) |  | 
CC1(COCc2ccc(-c3ccc(OC(F)(F)F)cc3)cc2)CCn2cc([N+](=O)[O-])nc2O1 (centres unmarked) [compound 29] |  |  |  |  |  | 1.4 (≈ 0.649 µg/mL) | 0.093 (≈ 0.0431 µg/mL) | 
C[C@]1(COCc2ccc(-c3ccc(OC(F)(F)F)cc3)cc2)CCn2cc([N+](=O)[O-])nc2O1 [compound 34, (7R)-7-Methyl-2-nitro-7-({[4′-(trifluoromethoxy)[1,1′-biphenyl]-4-yl]methoxy}methyl)-6,7-dihydro-5H-imidazo[2,1-b][1,3]oxazine] | 240 |  |  |  |  | 1.1 (≈ 0.51 µg/mL) | 0.063 (≈ 0.0292 µg/mL) | 
C[C@@]1(COCc2ccc(-c3ccc(OC(F)(F)F)cc3)cc2)CCn2cc([N+](=O)[O-])nc2O1 [compound 38] |  |  |  |  |  | 6.8 (≈ 3.15 µg/mL) | 0.74 (≈ 0.343 µg/mL) | 
O=[N+]([O-])c1cn2c(n1)OC(COc1ccc(OC(F)(F)F)cc1)CC2 (centres unmarked) [compound 39] | 40 |  |  |  |  | 4.7 (≈ 1.69 µg/mL) | 5.2 (≈ 1.87 µg/mL) | 
O=[N+]([O-])c1cn2c(n1)OC(COc1ccc(OCc3ccccc3)cc1)CC2 (centres unmarked) [compound 45] | 20 |  |  |  |  | > 128 | > 128 | 
CC1(COc2ccc(OCc3ccccc3)cc2)CCn2cc([N+](=O)[O-])nc2O1 (centres unmarked) [compound 47] | 120 |  |  |  | 0.44 (≈ 0.174 µg/mL) | > 128 |  | 
O=[N+]([O-])c1cn2c(n1)OC(COc1ccc(-c3ccc(OC(F)(F)F)cc3)cc1)CC2 (centres unmarked) [compound 53] | 60 |  |  |  |  | 0.73 (≈ 0.318 µg/mL) | 0.08 (≈ 0.0348 µg/mL) | 
CC1(COc2ccc(-c3ccc(OC(F)(F)F)cc3)cc2)CCn2cc([N+](=O)[O-])nc2O1 (centres unmarked) [compound 54] | 520 |  |  |  |  | 1.3 (≈ 0.584 µg/mL) | 0.11 (≈ 0.0494 µg/mL) | 
O=[N+]([O-])c1cn2c(n1)OC(COc1ccc(-c3ccc(F)cc3)cn1)CC2 (centres unmarked) [compound 59, 7-({[5-(4-Fluorophenyl)pyridin-2-yl]oxy}methyl)-2-nitro-6,7-dihydro-5H-imidazo[2,1-b][1,3]oxazine] | 10 |  |  |  |  | < 0.25 | 0.02 to 0.04 (≈ 0.00741 to 0.0148 µg/mL) | 0.025 (≈ 0.00926 µg/mL)
CC1(COc2ccc(-c3ccc(F)cc3)cn2)CCn2cc([N+](=O)[O-])nc2O1 (centres unmarked) [compound 61] | 90 |  |  |  |  | 1 (≈ 0.384 µg/mL) | 0.17 (≈ 0.0653 µg/mL) | 
CC1(COc2ccc(-c3ccc(F)cc3F)cn2)CCn2cc([N+](=O)[O-])nc2O1 (centres unmarked) [compound 63] |  | 110 | 210 | > 64 | 0.089 (≈ 0.0358 µg/mL) | 2.5 (≈ 1.01 µg/mL) |  | 
CC1(COc2ccc(-c3ccc(F)cc3)nc2)CCn2cc([N+](=O)[O-])nc2O1 (centres unmarked) [compound 90] | 650 |  |  |  |  | 3.9 (≈ 1.5 µg/mL) | 0.35 (≈ 0.135 µg/mL) | 
O=[N+]([O-])c1cn2c(n1)OC(COc1ccc(-c3ccc(F)cc3F)nc1)CC2 (centres unmarked) [compound 91] | 20 |  |  |  |  | 8.9 (≈ 3.46 µg/mL) | 0.36 (≈ 0.14 µg/mL) | 
O=[N+]([O-])c1cn2c(n1)OC(COc1ccc(-c3ccc(OC(F)(F)F)cc3)nc1)CC2 (centres unmarked) [compound 93] | 50 |  |  |  |  | 0.86 (≈ 0.375 µg/mL) | 0.02 to 0.04 (≈ 0.00873 to 0.0175 µg/mL) | 0.032 (≈ 0.014 µg/mL)

Compound | IC50 [1] [nM] | IC50 [2] [nM] | IC50 [3] [nM] | IC50 [4] [µM] | MIC [5, 7] [µM] | MIC [6] [µM] | MIC [5, 8] [µM] | MIC ([5]; aerobic, read-out: MIC MABA) [µM]
O=[N+]([O-])c1cn2c(n1)O[C@@H](COc1ccc(-c3ccc(OC(F)(F)F)cc3)nc1)CC2 [compound 94] |  |  |  |  |  | 1.5 (≈ 0.655 µg/mL) | 0.02 to 0.04 (≈ 0.00873 to 0.0175 µg/mL) | 0.024 (≈ 0.0105 µg/mL)
O=[N+]([O-])c1cn2c(n1)O[C@H](COc1ccc(-c3ccc(OC(F)(F)F)cc3)nc1)CC2 [compound 95] |  |  |  |  |  | 1.6 (≈ 0.698 µg/mL) | 0.34 (≈ 0.148 µg/mL) | 
CC1(COc2cccc(-c3ccc(F)cc3)n2)CCn2cc([N+](=O)[O-])nc2O1 (centres unmarked) [compound 101] |  | 180 | 350 | > 64 | 0.94 (≈ 0.361 µg/mL) | 5 (≈ 1.92 µg/mL) |  | 
CC1(COc2cccc(-c3ccc(F)cc3F)n2)CCn2cc([N+](=O)[O-])nc2O1 (centres unmarked) [compound 103] |  | 240 | 220 | > 64 | 0.69 (≈ 0.278 µg/mL) | 4.8 (≈ 1.93 µg/mL) |  | 
O=[N+]([O-])c1cn2c(n1)OC(COc1ccc(-c3ccc(F)nc3)cn1)CC2 (centres unmarked) [compound 107] | 270 |  |  |  |  | 15 (≈ 5.57 µg/mL) | 0.074 (≈ 0.0275 µg/mL) | 
CC1(COc2ccc(-c3ccc(F)nc3)cn2)CCn2cc([N+](=O)[O-])nc2O1 (centres unmarked) [compound 108] | 220 |  |  |  |  | 6.2 (≈ 2.39 µg/mL) | 1.9 (≈ 0.732 µg/mL) | 
CC1(COc2ccc(-c3ccc(F)nc3F)cn2)CCn2cc([N+](=O)[O-])nc2O1 (centres unmarked) [compound 110] |  | 200 | 430 | > 64 | 1 (≈ 0.403 µg/mL) | 6.6 (≈ 2.66 µg/mL) |  | 
O=[N+]([O-])c1cn2c(n1)OC(COc1ccc(-c3ccc(C(F)(F)F)nc3)cn1)CC2 (centres unmarked) [compound 111] | 130 |  |  |  |  | 2.5 (≈ 1.05 µg/mL) | 0.09 (≈ 0.0379 µg/mL) | 
O=[N+]([O-])c1cn2c(n1)OC(COc1ccc(-c3ccc(F)nc3)nc1)CC2 (centres unmarked) [compound 112] | 90 |  |  |  |  | 21 (≈ 7.8 µg/mL) | 2.3 (≈ 0.854 µg/mL) | 
CC1(COc2ccc(-c3ccc(F)nc3)nc2)CCn2cc([N+](=O)[O-])nc2O1 (centres unmarked) [compound 113] | 90 |  |  |  |  | 43 (≈ 16.6 µg/mL) | 2.7 (≈ 1.04 µg/mL) | 
O=[N+]([O-])c1cn2c(n1)OC(COc1ccc(-c3ccc(C(F)(F)F)nc3)nc1)CC2 (centres unmarked) [compound 116] | 70 |  |  |  |  | 58 (≈ 24.4 µg/mL) | 0.12 (≈ 0.0506 µg/mL) | 
CC1(COc2cccc(-c3ccc(F)nc3)n2)CCn2cc([N+](=O)[O-])nc2O1 (centres unmarked) [compound 118] |  | 1100 | 520 | > 64 | 11 (≈ 4.24 µg/mL) | 7.8 (≈ 3.01 µg/mL) |  | 
CC1(COc2cccc(-c3ccc(F)nc3F)n2)CCn2cc([N+](=O)[O-])nc2O1 (centres unmarked) [compound 120] |  | 590 | 490 | > 64 | 9.3 (≈ 3.75 µg/mL) | 7.9 (≈ 3.19 µg/mL) |  | 
O=[N+]([O-])c1cn2c(n1)OC(CN1CCN(c3ccc(F)cc3)CC1)CC2 (centres unmarked) [compound 142, 7-{[4-(4-Fluorophenyl)piperazin-1-yl]methyl}-2-nitro-6,7-dihydro-5H-imidazo[2,1-b][1,3]oxazine] | 190 |  |  |  |  | 9.9 (≈ 3.58 µg/mL) | 1.8 (≈ 0.65 µg/mL) | 
O=[N+]([O-])c1cn2c(n1)OC(CN1CCC(Oc3ccc(F)cc3)CC1)CC2 (centres unmarked) [compound 152] | 450 |  |  |  |  | 22 (≈ 8.28 µg/mL) | 2 (≈ 0.753 µg/mL) | 
O=[N+]([O-])c1cn2c(n1)OC(COC1CCN(c3ccc(F)cc3)CC1)CC2 (centres unmarked) [compound 170] |  |  |  |  |  | 20 (≈ 7.53 µg/mL) | 0.78 (≈ 0.294 µg/mL) | 
CC1(COC2CCN(c3ccc(F)cc3)CC2)CCn2cc([N+](=O)[O-])nc2O1 (centres unmarked) [compound 178] |  |  |  |  |  | 19 (≈ 7.42 µg/mL) | 0.37 (≈ 0.144 µg/mL) | 
